Molecular target: T1, Mp myosin XI-MD (Marchantia polymorpha, UniProt H3JRT9)
T1 construct: gene MyoXI; motor domain, residues 1-738; N-terminal FLAG tag (MDYKDDDDKRSMNSRPA), C-terminal GGG-Myc-His8 tag
T1 sequence (H3JRT9 1-738): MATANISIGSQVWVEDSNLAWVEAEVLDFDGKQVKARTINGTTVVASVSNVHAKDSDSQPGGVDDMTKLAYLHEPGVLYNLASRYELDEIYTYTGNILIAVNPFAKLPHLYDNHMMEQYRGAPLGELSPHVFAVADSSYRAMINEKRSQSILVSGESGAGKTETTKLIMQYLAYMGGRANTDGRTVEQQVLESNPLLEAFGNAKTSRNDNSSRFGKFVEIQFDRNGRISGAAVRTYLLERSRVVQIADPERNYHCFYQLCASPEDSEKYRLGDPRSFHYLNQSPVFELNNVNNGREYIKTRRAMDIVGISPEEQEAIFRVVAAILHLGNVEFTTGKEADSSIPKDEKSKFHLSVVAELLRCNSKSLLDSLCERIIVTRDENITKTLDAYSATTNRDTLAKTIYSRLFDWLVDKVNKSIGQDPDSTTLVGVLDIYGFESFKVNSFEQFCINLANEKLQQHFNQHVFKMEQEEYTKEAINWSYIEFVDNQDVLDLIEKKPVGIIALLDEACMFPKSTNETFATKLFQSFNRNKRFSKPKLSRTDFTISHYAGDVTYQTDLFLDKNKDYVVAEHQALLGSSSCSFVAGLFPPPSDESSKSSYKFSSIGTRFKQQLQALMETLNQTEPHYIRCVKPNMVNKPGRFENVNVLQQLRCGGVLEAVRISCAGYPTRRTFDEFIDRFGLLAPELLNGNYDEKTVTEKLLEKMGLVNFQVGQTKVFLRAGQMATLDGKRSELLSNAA
Test: steady-state actin-activated Mg2+-ATPase assay
Type: biochemical
Settings: F-actin varied, 25 °C

In the case of `Nc1ncnc2c1ncn2[C@@H]1O[C@H](COP(=O)(O)OP(=O)(O)OP(=O)(O)O)[C@@H](O)[C@H]1O` [ATP], the “steady-state actin-activated Mg2+-ATPase assay” value is reported as “we determined the maximum rate of ATP turnover (V max) and the actin concentration”.

Reference: publication PMC7689712, “Characterization of ancestral myosin XI from Marchantia polymorpha by heterologous expression in Arabidopsis thaliana” (The Plant Journal, 2020)
